{
  "source": "patent US5707821A",
  "about": "“Identification of phospholipase A2 inhibitors in Aβ peptide-mediated neurodegenerative disease” (priority 1995, dated 1998)",
  "tested_on": "human cortical neurons",
  "test": "Compound toxicity to human cortical neurons in absence of Aβ1-40 (alamarBlue, 3 days)",
  "type": "cell-based",
  "settings": "human, 4320 min",
  "procedure": "Cultures of human cortical or hippocampal neurons were prepared using a modification of the procedure described in P. Seubert et al. (1992), Nature 359:325-327. Cortical or hippocampal tissue was dissociated by incubation in a trypsin/EDTA solution (0.05% trypsin +0.53 mM EDTA in HBSS; Gibco) for 20 minutes at 37° C. The trypsin was then inactivated by resuspending the cells in serum-containing medium (MEM/FBS): Modified Eagle's Medium (MEM) containing 1% glucose, 1 mM sodium pyruvate, 1 mM glutamine, and supplemented with 10% fetal bovine serum (Gibco). Cells were then pelleted by centrifugation and resuspended in a chemically-defined medium (MEM/B27): MEM containing B27 supplement (Gibco) in place of FBS. Polyethyleneimine (PEI)-coated 6.4-mm (96-well) dishes were rinsed once with MEM/FBS, and then seeded at 0.75-1.25×10^5 cells per well in 0.1 ml MEM/B27. Cultures were maintained in a H2 O-saturated incubator with an atmosphere of 95% air/5% CO2 at 37° C. The culture medium was exchanged twice weekly.\nThe alamarBlue™ assay incorporated a proprietary fluorometric/colorimetric metabolic indicator (Alamar Biosciences, Inc.). Viable cells convert alamarBlue™ from an oxidized (non-fluorescent, blue) form to a reduced (fluorescent, red) form. Assays were performed by replacing the culture media with a 10% alamarBlue™ solution in DMEM (rat cortical cultures) or MEM (human cortical cultures). Reduction of alamarBlue™ was determined spectrofluorometrically using a Millipore Cytofluor 2350 Scanner (excitation, […]; emission, 590 nm) and CytoCalc™ software (Millipore Corporation).\nHuman cortical neurons were treated with 50 μM Aβ1-40 and various inhibitors of PLA2 or PLC. Compounds were added at the time of Aβ1-40 treatment at concentrations 390 nM to 100 μM. Compounds were also added to neuronal cultures in the absence of Aβ1-40. Neuronal survival was determined after 3 days of treatment by alamarBlue®. IC50 is the dose of compound that inhibited Aβ-mediated neurotoxicity by 50%. […] Data represents the mean ± SD (n=3). ND, not detected at the concentration range used.",
  "data": [
    {"smiles": "CN(C(=O)/C=C/c1ccc(S(C)(=O)=O)cc1)c1ccc(S(=O)(=O)NC2CCCCCC2)cc1", "note": "[AN20606, N-cycloheptyl-4-[N-methyl-N-[(E)-3-(4-methylsulfonylphenyl)-2-propenoyl]amino]benzenesulfonamide]", "values": [
      {"measurement": "TD10 (concentration giving 10% loss of neuronal survival)", "value": 98, "unit": "µM"}
    ]}
  ]
}
